Where a SMILES comes first, the peptide text is derived from it. The star is where a group is joined. Cbz = O=C(OCc1ccccc1)*

The subject of one data set is Slug. Briefly: Western blot of Slug in GBM cells. Type of data set: cell-based, human. The note with it: MG132 10 μM 30 mins pretreatment, then GMI 0.6 μM 3 h. The protocol:
FIGS. 10A-10D show GMI induces Slug degradation in GBM cells. […] The mRNA level of Slug was measured using qPCR.
Cell extracts (30 μg) were then subjected to one-dimensional SDS-PAGE (8-12% separating gel) electrophoresis and were transferred to a PVDF membrane (0.22 μm, Millipore) by using a transfer apparatus (Bio-Rad, Richmond, CA). Membranes were blocked with 5% BSA in TBST buffer containing 0.05% Tween20. The expressions of proteins were identified by indicated antibodies. The expression of tubulin as an internal control. The indicated bands on the PVDF membrane were quantified using densitometry analysis by ImageJ software (National Institute of Mental Health, Bethesda, MD) and compared to results of the control group.
A general note: A western blot detects proteins with antibodies after separation by electrophoresis.

A short description of data set [1]: Rat weight and serum AST, ALT, BUN, creatinine in C6-bearing rats. In kind it is in vivo. As to conditions: rat sera, TMZ 30 mg/kg ip. The protocol:
FIGS. 7A-7F show GMI combined with TMZ suppressed tumorigenesis in C6-bearing rats. FIG. 7A indicates Schematic design of the in vivo post combined therapy of GMI and TMZ in C6-bearing rats. The tumor volume in rat received GMI (0.6 mg/kg) and […]. […] FIG. 7C indicates the tumor volume was measured; each bar represents the mean+SD. […] FIGS. 7E and 7F show the AST and ALT (hepatic function: shown in FIG. 7E) as well as BUN and creatinine (renal function; shown in FIG. 7F) of rat sera were analyzed.
Five days after tumor implantation surgery, rats were randomly assigned into four group (6 animals/group) to be treated with different drugs every other day for 4 times, i.e. on day 5, 7, 9, 11. • Group 1 (control): intravenous administration of saline. • Group 2 (GMI): intravenous (iv) administration of GMI (0.6 mg/Kg) • Group 3 (TMZ): intraperitoneal (ip) administration of TMZ (30 mg/Kg) • Group 4 (GMI+TMZ): combination of GMI (iv, 0.6 mg/Kg) and TMZ (ip, 30 mg/Kg)
MRI imaging acquisition was performed on day 13 and a half of the animals in each group were sacrificed on day 15 for immunohistochemistry study. After tumor volume was measured, specimens from the animals in the histology group were subjected to other histological evaluations described as follows.

Consider `CC(C)C[C@@H](C=O)NC(=O)[C@H](CC(C)C)NC(=O)[C@H](CC(C)C)NC(=O)OCc1ccccc1` [MG132] (Cbz-Leu-Leu-Leu-aldehyde), for which, in the data set with Slug, the “GMI-induced Slug degradation” value is on record as “counteracted GMI-induced Slug degradation”. Take `Cn1nnc2c(C(N)=O)ncn2c1=O` [TMZ, Temozolomide]: the AST/ALT result in data set [1] (GMI 0.6 mg/kg iv) is given as “increased AST/ALT expression”. Also, the BUN entry in data set [1] is reported as “slightly increased BUN expression”.

Values taken from patent publication US20240216465A1, “METHOD FOR TREATING REFRACTORY BRAIN TUMOR” (National Yang Ming Chiao Tung University, priority 2023, published 2024).
